# Literature values, collected in patent publication US10385093B2, “Estrogen receptor imaging agents” (Northeastern University, priority 2012, dated 2019).
# Experiments:
# [1] = small animal studies
# [2] = molecular target: T1, steroid hormone binding globulin (SHBG) (Homo sapiens, UniProt P04278)
# T1 construct: host or cells: circulating plasma
# T1 sequence (P04278 30-402): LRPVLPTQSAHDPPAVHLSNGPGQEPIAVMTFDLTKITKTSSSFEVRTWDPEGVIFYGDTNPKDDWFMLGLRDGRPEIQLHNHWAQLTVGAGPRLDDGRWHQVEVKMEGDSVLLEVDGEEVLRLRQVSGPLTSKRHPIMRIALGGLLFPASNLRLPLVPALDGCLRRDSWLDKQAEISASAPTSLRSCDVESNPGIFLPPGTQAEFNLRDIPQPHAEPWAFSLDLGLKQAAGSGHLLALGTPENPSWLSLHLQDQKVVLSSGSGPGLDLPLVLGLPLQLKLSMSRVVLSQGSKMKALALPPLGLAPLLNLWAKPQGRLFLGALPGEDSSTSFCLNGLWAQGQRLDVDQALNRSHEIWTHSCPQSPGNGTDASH
# ER = details: binding to ER in target tissues
# [3] = rats, by 60 minutes after injection
# [4] = plasma of patients
selectivity uptake ratios compared with [^18F]-ES [1],FES in circulating plasma complexed with SHBG [2] [%],relative binding affinity (RBA) (ER) [%],circulating radioactivity due to [18F]-FES [3],radioactivity in plasma that is parent FES [4],SMILES
higher selectivity uptake ratios,–,–,–,–,"CO[C@H]1C[C@]2(C)[C@@H](O)[C@H]([18F])C[C@H]2[C@@H]2CCc3c(ccc(O)c3F)[C@H]21 [4FMFES, 4-Fluoro-11β-methoxy-16α-[^18F]-flouroestradiol]"
–,≤ 45,80,less than 15%,less than 20%,"C[C@]12CC[C@@H]3c4ccc(O)cc4CC[C@H]3[C@@H]1C[C@@H](F)[C@@H]2O [FES, [^18F]-16α-fluoroestradiol]"
